Assay: xn = mol fraction of the nth substance listed
Details: 101 kPa, Liquid; for viscosity: Anton Paar Stabinger viscometer

COc1ccccc1 [anisole] + c1ccccc1
Details	mass density [kg/m3]	speed of sound [m/s]	viscosity [mPa·s]
288.15 K, x1 = 0.097	897.546	1356.8	0.747
288.15 K, x1 = 0.175	907.884	1364.5	0.777
288.15 K, x1 = 0.274	920.511	1374.4	0.817
288.15 K, x1 = 0.368	932.009	1383.8	0.856
288.15 K, x1 = 0.4971	947.045	1395.2	0.915
288.15 K, x1 = 0.623	960.925	1406.8	0.976
288.15 K, x1 = 0.72	971.118	1418.4	1.027
288.15 K, x1 = 0.8003	979.257	1425.2	1.072
288.15 K, x1 = 0.8895	988.004	1437.5	1.126
288.15 K, x1 = 1	998.441	1449.1	1.188
293.15 K, x1 = 0.097	890.999	1333	0.683
293.15 K, x1 = 0.175	901.497	1340.7	0.71
293.15 K, x1 = 0.274	914.322	1350.8	0.746
293.15 K, x1 = 0.368	926.005	1360.5	0.781
293.15 K, x1 = 0.4971	941.295	1373.9	0.833
293.15 K, x1 = 0.623	955.425	1387.2	0.889
293.15 K, x1 = 0.72	965.807	1397.5	0.936
293.15 K, x1 = 0.8003	974.102	1406.1	0.978
293.15 K, x1 = 0.8895	983.017	1415.9	1.027
293.15 K, x1 = 1	993.649	1428.5	1.084
298.15 K, x1 = 0.097	887.083	1309.3	0.638
298.15 K, x1 = 0.175	897.532	1317	0.664
298.15 K, x1 = 0.274	910.286	1327.1	0.697
298.15 K, x1 = 0.368	921.904	1337	0.73
298.15 K, x1 = 0.4971	937.104	1350.8	0.779
298.15 K, x1 = 0.623	951.156	1364.6	0.831
298.15 K, x1 = 0.72	961.483	1375.5	0.877
298.15 K, x1 = 0.8003	969.734	1384.6	0.918
298.15 K, x1 = 0.8895	978.597	1394.8	0.963
298.15 K, x1 = 1	989.15	1408	1.017
303.15 K, x1 = 0.097	881.745	1286.9	0.601
303.15 K, x1 = 0.175	892.244	1295.4	0.623
303.15 K, x1 = 0.274	905.059	1306.3	0.651
303.15 K, x1 = 0.368	916.731	1316.6	0.679
303.15 K, x1 = 0.4971	932.013	1330.9	0.72
303.15 K, x1 = 0.623	946.146	1345	0.767
303.15 K, x1 = 0.72	956.542	1355.8	0.808
303.15 K, x1 = 0.8003	964.845	1364.9	0.844
303.15 K, x1 = 0.8895	973.764	1375.1	0.883
303.15 K, x1 = 1	984.374	1387.7	0.931
